Columns and labels:
[1] = test system: transplanted tumor of human leukemia HL-60 cells; test: Human leukemia in nude mice model; conditions: HL-60 nude mice; 30 mg/kg i.g. 30 d
Method: HL-60 cells in a logarithmic growth phase were taken and subjected to a trypan blue exclusion experiment showing that the cell viability was more than 95%, then the cells were subjected to trypsinization, centrifugation, and supernatant removal. Then cell concentration was adjusted to 1×10^7/ml with matrigel, and then each nude mouse was inoculated subcutaneously with 0.2 ml of cells at its right armpit and recorded as the first day of inoculation. […] Each group was continuously administered intragastrically for 30 days with a dose of 20 ml/kg. The mice were sacrificed the next day after drug withdrawal and the indicators were tested. The long diameter and short diameter of the tumor, and the body weight of each mouse were recorded every 3 days from drug administration to nude mouse sacrifice.
(§1) The body weight of the nude mice and the long diameter (a) and short diameter (b) of the transplanted tumor were measured every 3 days, and the tumor volume (v), relative tumor volume (RTV) and relative tumor proliferation rate (T/C) are calculated respectively according to the following formulas, wherein V=a×b^2/2; RTV=V/V0 (V0 is the tumor volume before administration, V is the tumor volume before sacrifice), and T/C (%)=treatment group RTV/model control group RTV×100%.
(§2) Each mouse was weighed and sacrificed. After the tumor was completely stripped off from the body of the mouse, the non-tumor tissues such as blood stains and fat were removed to weigh the tumor and calculate the tumor growth inhibition rate. The average tumor weight of each group of mice is used as an indicator of efficacy. Tumor growth inhibition rate (%)=(1−the average tumor weight of the treatment group/the average tumor weight of the model group)×100%.

[2] = test system: transplanted tumor of human renal cell adenocarcinoma 769-P cells; test: Human renal cell adenocarcinoma in nude mice model; conditions: 769-P nude mice; 30 mg/kg i.g. 30 d
Method: Then cell concentration was adjusted to 1×10^7/ml with matrigel, and then each nude mouse was inoculated subcutaneously with 0.2 ml of cells at its right armpit and recorded as the first day of inoculation. […] Each group was continuously administered intragastrically for 30 days with a dose of 20 ml/kg. The mice were sacrificed the next day after drug withdrawal and the indicators were tested. The long diameter and short diameter of tumor, and the body weight of each mouse were recorded every 3 days from drug administration to nude mouse sacrifice.
as §1, §2

[3] = test system: thymus and spleen of Lewis lung cancer tumor-bearing mice; test: Thymus index and spleen index of Lewis lung cancer tumor-bearing mice; assay type: in vivo, C57BL/6 mouse
Method: After the tumor-bearing mice are sacrificed, the spleen and thymus are weighed, and the spleen index and thymus index are calculated.

[4] = test system: transplanted tumor of human gastric adenocarcinoma SGC7901 cells; test: Human gastric adenocarcinoma in nude mice model; conditions: 30 mg/kg
Method: Then cell concentration was adjusted to 1×10^7/ml with matrigel, and then each nude mouse was inoculated subcutaneously with 0.2 ml of cells at its right armpit and recorded as the first day of inoculation. […] Each group was continuously administered intragastrically for 30 days with a dose of 20 ml/kg. The mice were sacrificed the next day after drug withdrawal and the indicators were tested. The long diameter and short diameter of the tumor, and the body weight of each mouse were recorded every 3 days from drug administration to nude mouse sacrifice.
as §1, §2

[5] = test system: transplanted tumor of mouse Lewis lung cancer; test: Inhibition of transplanted tumor of mouse Lewis lung cancer
Method: Lewis lung cancer cells were cultured in a RPMI 1640 culture medium containing 10% fetal bovine serum at 37° C. in a 5% CO2 incubator. The cells in the logarithmic growth phase were subjected to trypsinization with 0.25% trypsin, then the cells were collected to be centrifugated to remove the obtained supernatant, then were washed twice with sterile normal saline. […] The Lewis cells were adjusted to 1×10^7/mL in concentration and stored in ice water. 75% ethanol was used to disinfect the skin under the right armpits of the mice, and each C57BL/6 mouse was soon inoculated subcutaneously with 0.2 ml of the cells at its right armpit.
In the Lewis lung cancer model, the mice inoculated with the tumor were randomly divided into groups with 10 mice in each group on the next day of inoculation. […] Each group was continuously administered intragastrically for 15 days with a dose of 20 ml/kg.
The tumor-bearing mice were weighed and sacrificed the next day after the last administration. The subcutaneous tumors were dissected and weighed. The average tumor weight of each group is calculated, and the tumor inhibition rate is calculated. Tumor inhibition rate=(1−T/C)×100%
T: average tumor weight of the drug-administered group; C: average tumor weight of the blank control group.

[6] = test system: transplanted tumor of human colon cancer HT-29 cells; test: Human colon cancer in nude mice model; conditions: HT-29 nude mice; 30 mg/kg i.g. 30 d
Method: Then cell concentration was adjusted to 1×10^7/ml with matrigel, then each nude mouse was inoculated subcutaneously with 0.2 ml of cells at its right armpit and recorded as the first day of inoculation. […] Each group was continuously administered intragastrically for 30 days with a dose of 20 ml/kg. The mice were sacrificed the next day after drug withdrawal and the indicators were tested. The long diameter and short diameter of the tumor, and the body weight of each mouse were recorded every 3 days from drug administration to nude mouse sacrifice.
as §1, §2

[7] = test system: transplanted tumor of human glioma U251 cells; test: Human glioma in nude mice model; conditions: 30 mg/kg i.g. 30 d
Method: Then matrigel cell concentration was adjusted to 1×10^7/ml with matrigel, and then each nude mouse was inoculated subcutaneously with 0.2 ml of cells at its right armpit and recorded as the first day of inoculation. […] Each group was continuously administered intragastrically for 30 days with a dose of 20 ml/kg. The mice were sacrificed the next day after drug withdrawal and the indicators were tested. The long diameter and short diameter of tumor, and the body weight of each mouse were recorded every 3 days from drug administration to nude mouse sacrifice.
as §1, §2

[8] = 26 mg/kg, positive drug group, n = 6

O=P1(N(CCCl)CCCl)NCCCO1 (stereo not drawn) [Cyclophosphamide]
Body Weight (g)(d1) [1]: 22.66 ± 1.11 g | Body Weight (g)(d30) [1]: 20.52 ± 1.73 g | Inhibition Rate (%) [1]: 81.37% | Relative Tumor Proliferation Rate(T/C) [1]: 58.63% | Relative Tumor Volume (RTV) [1]: 6.76 ± 2.53 | Tumor Volume (mm3) (d1) [1]: 209.22 ± 50.12 mm3 | Tumor Volume (mm3) (d30) [1]: 1415.16 ± 320.21 mm3 | Tumor Weight [1]: 1.46 ± 0.24 g | Body Weight (g)(d1) [2]: 22.48 ± 0.91 g | Body Weight (g)(d30) [2]: 21.28 ± 0.39 g | Inhibition Rate (%) [2]: 76.09% | Relative Tumor Proliferation Rate(T/C) [2]: 19.68% | Relative Tumor Volume (RTV) [2]: 4.19 ± 1.29 | Tumor Volume (mm3) (d1) [2]: 178.48 ± 28.78 mm3 | Tumor Volume (mm3) (d30) [2]: 747.83 ± 138.57 mm3 | Tumor Weight [2]: 0.61 ± 0.15 g | Spleen Index (%) [3, 8]: 0.41 ± 0.12 % | Thymus Index (%) [3, 8]: 0.12 ± 0.09% | spleen index compared with the control group ([3]; Lewis lung cancer tumor-bearing mice, cyclophosphamide, P<0.01): significantly lower | Relative Tumor Proliferation Rate(T/C) [4]: 48.83% | Relative Tumor Volume (RTV) [4]: 7.86 ± 3.23 | Tumor Weight [4]: 0.71 ± 0.08 g | Inhibition Rate (%) ([4]; by tumor weight): 70.97% | Body Weight (g)(d1) ([4]; d1): 21.80 ± 1.96 g | Tumor Volume (mm3) (d1) ([4]; d1): 102.45 ± 9.52 mm3 | Body Weight (g)(d30) ([4]; d30): 20.25 ± 1.57 g | Tumor Volume (mm3) (d30) ([4]; d30): 799.74 ± 82.25 mm3 | Tumor Weight ([5]; 26 mg/kg, positive drug group, 15 days): 0.59 ± 0.13 g | Inhibition Rate (%) ([5]; 26 mg/kg, positive drug group, by tumor weight): 49.14% | Body Weight (g)(d1) ([5]; 26 mg/kg, positive drug group, d1): 25.60 ± 2.06 g | Body Weight (g) (d15) ([5]; 26 mg/kg, positive drug group, d15): 20.14 ± 3.26 g | tumor inhibition rate ([5]; mouse Lewis lung cancer, cyclophosphamide 30 mg/kg i.g. 15 days): 49.14% | Body Weight (g)(d1) [6]: 23.76 ± 01.11 g | Body Weight (g)(d30) [6]: 21.52 ± 01.32 g | Inhibition Rate (%) [6]: 67.38% | Relative Tumor Proliferation Rate(T/C) [6]: 25.71% | Relative Tumor Volume (RTV) [6]: 5.21 ± 0.70 | Tumor Volume (mm3) (d1) [6]: 156.61 ± 5.92 mm3 | Tumor Volume (mm3) (d30) [6]: 816.17 ± 21.03 mm3 | Tumor Weight [6]: 0.40 ± 0.03 g | Body Weight (g)(d1) [7]: 22.24 ± 1.53 g | Body Weight (g)(d30) [7]: 19.92 ± 1.68 g | Inhibition Rate (%) [7]: 79.74% | Relative Tumor Proliferation Rate(T/C) [7]: 56.84% | Relative Tumor Volume (RTV) [7]: 5.75 ± 1.22 | Tumor Volume (mm3) (d1) [7]: 98.40 ± 25.25 mm3 | Tumor Volume (mm3) (d30) [7]: 566.33 ± 39.32 mm3 | Tumor Weight [7]: 0.42 ± 0.10 g

— patent US11077126B2 (priority 2017, dated 2021)
